The values that follow come from ChEMBL document CHEMBL5518156, “Recent advances of targeting nicotinamide phosphoribosyltransferase (NAMPT) for cancer drug discovery” (Eur J Med Chem, 2023).

Series [1] deals with von Hippel-Lindau disease tumor suppressor/Nicotinamide phosphoribosyltransferase (Homo sapiens, UniProt P43490+P40337). In words: Protac activity at VHL/NAMPT in human A2780 cells assessed as degradation of NAMPT using NAM as substrate pre-incubated for 30 mins followed by substrate addition measured for 1 hr in presence of ATP by luminescence based microplate reader analysis. In kind it is cell-based.

Series [2] can be described thus: Cmax in mouse plasma at 30 mg/kg, ip measured upto 24 hrs by LC-MS/MS analysis. In kind it is ADME, organism-based.
The nature of series [3]: Half life in mouse plasma at 5 mg/kg, iv by LC-MS/MS analysis. Format: ADME, organism-based.
Series [4] deals with A2780. In words: Antitumor activity against human A2780 cells xenografted in BALB/c nu/nu mouse assessed as tumor growth inhibition at 30 mg/kg, iv administered once daily for 2 weeks relative to control. In kind it is functional. The note with it: A2780, 336 h, read-out: TGI.
Series [5] concerns the target T1, Nicotinamide phosphoribosyltransferase (Homo sapiens, UniProt P43490). In words: Inhibition of N-terminal 6His-tagged human NAMPT (unknown origin) expressed in Escherichia coli Rosetta (DE) cells incubated for 1 hr by […].
The target in series [6] is Epidermal growth factor receptor (Homo sapiens, UniProt P00533, L858R). Kind of series: Inhibition of EGFR L858R mutant (unknown origin).
The target of series [7] is Epidermal growth factor receptor (Homo sapiens, UniProt P00533, L861Q). In words: Inhibition of human EGFR L861Q mutant by discoverX kinome scan assay.
Series [8] is described as follows: Oral bioavailability in ICR mouse at 5 mg/kg by LC-MS/MS analysis. Format: ADME, organism-based. The note with it: in vivo.
Series [9] is described as follows: Clearance in Beagle dog at 5 mg/kg, po. In kind it is ADME, organism-based, Canis lupus familiaris. The note with it: in vivo.
Series [10] in a line: Clearance in Sprague-Dawley rat at 5 mg/kg, po. In kind it is ADME, organism-based. The settings on record: in vivo.
The nature of series [11]: Oral bioavailability in Sprague-Dawley rat at 5 mg/kg by LC-MS/MS analysis. In kind it is ADME, organism-based. The settings on record: in vivo.
A short description of series [12]: Clearance in cynomolgus monkey at 5 mg/kg, po. The note with it: in vivo. Format: ADME, organism-based, Macaca fascicularis.
Series [13] can be described thus: Oral bioavailability in Beagle dog at 5 mg/kg. Format: ADME, organism-based, Canis lupus familiaris. The note with it: in vivo.
The nature of series [14]: Oral bioavailability in Cynomolgus monkey at 5 mg/kg. The settings on record: in vivo. Format: ADME, organism-based, Macaca fascicularis.
The test system of series [15] is COLO 205. Kind of series: Antitumor activity against human COLO 205 cells xenografted in mouse model assessed as tumor growth inhibition at 15 mg/kg, po administered once daily for 7 days relative to control. Format: functional. The note with it: COLO 205, 168 h, time 7 day, read-out: TGI.
Series [16] is described as follows: Clearance in ICR mouse at 5 mg/kg, po. Format: ADME, organism-based. The settings on record: in vivo.
The target in series [17] is Histone deacetylase 1 (Homo sapiens, UniProt Q13547). In words: Inhibition of human recombinant HDAC1 using Boc-Lys(Ac)-AMC as substrate preincubated for 30 mins followed by substrate addition measured for 1 hr by fluorescence based analysis.
Series [18] deals with T1, Nicotinamide phosphoribosyltransferase. In words: Inhibition of NAMPT (unknown origin).
Series [19] relates to SH-SY5Y. In words: Antiproliferative activity against human SH-SY5Y cells assessed as cell growth inhibition measured for 48 hrs by MTT assay. Format: functional, cell-based.
Series [20] in a line: Oral bioavailability in mouse at 2 mg/kg. In kind it is ADME, organism-based. The note with it: in vivo.
In series [21] the test system is A549. Kind of series: Antitumor activity against human A549 cells xenografted in BALB/c nude mouse assessed as tumor growth inhibition at 20 mg/kg, ip administered once daily for 20 days relative to control. In kind it is functional. The note with it: A549, 480 h, time 20 day, read-out: TGI.
Series [22] relates to A549. In words: Antitumor activity against human A549 cells xenografted in BALB/c nude mouse assessed as tumor growth inhibition at 10 mg/kg, ip administered once daily for 20 days relative to control. The settings on record: A549, 480 h, time 20 day, read-out: TGI. Format: functional. In general terms: A xenograft is tissue or cells of one species grown in another, often human tumour cells in immunodeficient mice.

Series [23] can be described thus: Clearance in Sprague-Dawley rat at 1 mg/kg, iv. In kind it is ADME, organism-based. The note with it: in vivo.
Series [24] is described as follows: Half life in Sprague-Dawley rat at 5 mg/kg, po measured for 24 hrs by LC/MS/MS analysis. The note with it: in vivo. Format: ADME, organism-based.
The test system of series [25] is HCT-116. In words: Antitumor activity against human HCT-116 cells xenografted in […] mouse assessed as tumor growth inhibition at 15 mg/kg, po administered for 3 days relative to control. Format: functional. The settings on record: HCT-116, 72 h, time 3 day, read-out: TGI.
Series [26] is described as follows: Cmax in CD-1 mouse at 2 mg/kg, iv. In kind it is ADME, organism-based. The settings on record: in vivo.
Series [27] is described as follows: AUC in CD-1 mouse at 2 mg/kg, iv. Format: ADME, organism-based. The note with it: in vivo.
The nature of series [28]: Clearance in CD-1 mouse at 2 mg/kg, iv. In kind it is ADME, organism-based. The note with it: in vivo.
A short description of series [29]: Oral bioavailability in CD-1 mouse at 2 mg/kg. Format: ADME, organism-based. The note with it: in vivo.
Series [30] deals with MIA PaCa-2. Kind of series: Antiproliferative activity against human MIA PaCa-2 cells assessed as reduction in cell viability incubated for 72 hrs by MTT assay. In kind it is functional, cell-based. The note with it: MIA PaCa-2, 72 h. In general terms: Tetrazolium assays rely on reduction of a dye to a coloured formazan, in cell work by metabolically active cells.
For series [31], the target named is Cytochrome P450 2C9 (Homo sapiens, UniProt P11712). Kind of series: Inhibition of CYP2C9 (unknown origin). Format: ADME.
The target in series [32] is Cytochrome P450 3A4 (Homo sapiens, UniProt P08684). Kind of series: Inhibition of CYP3A4 (unknown origin). Format: ADME.
Series [33] is described as follows: Oral bioavailability in Sprague-Dawley rat at 5 mg/kg. In kind it is ADME, organism-based. The settings on record: in vivo.
Series [34] is described as follows: Cmax in Sprague-Dawley rat at 10 mg/kg, po by LC-MS analysis. In kind it is ADME, organism-based. The note with it: in vivo.
Series [35] is described as follows: Oral bioavailability in Sprague-Dawley rat at 10 mg/kg by LC-MS analysis. Format: ADME, organism-based. The settings on record: in vivo.
For series [36], the system named is A2780. In words: Antiproliferative activity against human A2780 cells assessed as reduction in cell viability measured for 72 hrs by MTT assay. Format: functional, cell-based. The note with it: A2780, 72 h.

Where only a bound is given, the exact number is not on record here.

T1 sequence (P43490 whole entry): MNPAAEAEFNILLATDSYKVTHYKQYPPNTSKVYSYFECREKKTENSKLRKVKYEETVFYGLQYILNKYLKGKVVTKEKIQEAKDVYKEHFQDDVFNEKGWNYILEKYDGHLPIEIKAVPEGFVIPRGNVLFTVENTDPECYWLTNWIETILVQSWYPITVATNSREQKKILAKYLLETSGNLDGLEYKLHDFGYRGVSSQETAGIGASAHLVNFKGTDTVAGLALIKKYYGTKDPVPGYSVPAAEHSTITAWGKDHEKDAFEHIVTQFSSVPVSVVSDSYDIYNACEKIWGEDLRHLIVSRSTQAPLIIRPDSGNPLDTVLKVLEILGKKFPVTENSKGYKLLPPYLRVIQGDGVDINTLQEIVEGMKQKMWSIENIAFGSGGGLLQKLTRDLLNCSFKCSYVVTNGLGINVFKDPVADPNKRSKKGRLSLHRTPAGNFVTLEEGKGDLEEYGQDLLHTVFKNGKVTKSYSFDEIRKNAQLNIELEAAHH
Epidermal growth factor receptor (Homo sapiens, UniProt P00533, L858R), sequence (P00533 25-1210 L858R limits assumed): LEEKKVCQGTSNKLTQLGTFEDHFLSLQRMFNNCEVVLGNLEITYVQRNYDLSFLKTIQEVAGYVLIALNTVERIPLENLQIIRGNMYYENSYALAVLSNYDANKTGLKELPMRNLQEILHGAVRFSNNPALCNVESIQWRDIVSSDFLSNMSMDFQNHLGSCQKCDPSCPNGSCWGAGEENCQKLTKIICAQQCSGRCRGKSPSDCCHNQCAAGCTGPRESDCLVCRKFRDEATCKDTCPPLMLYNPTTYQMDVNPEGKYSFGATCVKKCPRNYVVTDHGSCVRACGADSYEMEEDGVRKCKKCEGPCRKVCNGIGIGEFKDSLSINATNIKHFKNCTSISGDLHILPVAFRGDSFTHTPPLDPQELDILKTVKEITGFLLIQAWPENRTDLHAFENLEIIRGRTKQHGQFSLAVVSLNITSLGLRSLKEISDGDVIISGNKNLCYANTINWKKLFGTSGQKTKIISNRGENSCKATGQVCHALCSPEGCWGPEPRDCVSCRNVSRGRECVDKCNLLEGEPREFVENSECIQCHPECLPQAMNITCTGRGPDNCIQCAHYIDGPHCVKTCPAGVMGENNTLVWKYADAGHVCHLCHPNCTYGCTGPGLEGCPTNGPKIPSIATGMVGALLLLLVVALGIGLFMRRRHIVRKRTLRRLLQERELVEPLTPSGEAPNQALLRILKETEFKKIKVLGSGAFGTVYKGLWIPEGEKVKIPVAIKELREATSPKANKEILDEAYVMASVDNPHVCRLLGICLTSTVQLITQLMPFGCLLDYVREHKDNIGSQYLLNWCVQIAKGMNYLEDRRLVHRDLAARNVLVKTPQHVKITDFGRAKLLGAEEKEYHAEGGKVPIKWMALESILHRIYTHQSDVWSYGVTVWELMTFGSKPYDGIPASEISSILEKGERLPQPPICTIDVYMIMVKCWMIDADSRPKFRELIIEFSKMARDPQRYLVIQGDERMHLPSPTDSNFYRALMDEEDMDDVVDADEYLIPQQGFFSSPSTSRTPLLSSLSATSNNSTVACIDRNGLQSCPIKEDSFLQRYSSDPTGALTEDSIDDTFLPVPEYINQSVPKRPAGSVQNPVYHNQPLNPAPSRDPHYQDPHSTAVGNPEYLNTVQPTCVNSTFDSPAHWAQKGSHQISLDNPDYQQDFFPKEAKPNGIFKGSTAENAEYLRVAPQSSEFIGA
Cytochrome P450 3A4, sequence (P08684 whole entry): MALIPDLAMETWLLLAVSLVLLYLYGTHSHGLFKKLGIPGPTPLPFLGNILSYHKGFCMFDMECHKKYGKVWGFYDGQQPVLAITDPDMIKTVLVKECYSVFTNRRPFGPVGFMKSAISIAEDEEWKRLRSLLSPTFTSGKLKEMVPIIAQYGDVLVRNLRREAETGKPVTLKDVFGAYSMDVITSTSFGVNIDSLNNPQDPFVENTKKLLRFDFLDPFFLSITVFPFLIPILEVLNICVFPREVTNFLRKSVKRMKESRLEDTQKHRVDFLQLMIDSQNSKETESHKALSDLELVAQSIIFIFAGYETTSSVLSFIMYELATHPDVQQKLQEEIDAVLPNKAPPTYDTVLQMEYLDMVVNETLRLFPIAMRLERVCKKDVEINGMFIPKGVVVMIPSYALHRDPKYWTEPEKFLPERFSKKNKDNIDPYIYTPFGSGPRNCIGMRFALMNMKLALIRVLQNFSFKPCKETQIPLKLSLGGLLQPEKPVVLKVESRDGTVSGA
von Hippel-Lindau disease tumor suppressor/Nicotinamide phosphoribosyltransferase, sequence (P43490 whole entry): as the sequence (P43490 whole entry) above
von Hippel-Lindau disease tumor suppressor/Nicotinamide phosphoribosyltransferase, sequence (P40337 whole entry): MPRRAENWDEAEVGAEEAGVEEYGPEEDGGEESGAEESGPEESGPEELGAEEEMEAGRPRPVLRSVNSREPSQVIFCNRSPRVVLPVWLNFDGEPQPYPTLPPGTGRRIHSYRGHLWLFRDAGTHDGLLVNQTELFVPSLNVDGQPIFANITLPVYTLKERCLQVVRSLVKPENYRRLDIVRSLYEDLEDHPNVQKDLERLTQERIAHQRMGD
Epidermal growth factor receptor (Homo sapiens, UniProt P00533, L861Q), sequence (P00533 25-1210 L861Q limits assumed): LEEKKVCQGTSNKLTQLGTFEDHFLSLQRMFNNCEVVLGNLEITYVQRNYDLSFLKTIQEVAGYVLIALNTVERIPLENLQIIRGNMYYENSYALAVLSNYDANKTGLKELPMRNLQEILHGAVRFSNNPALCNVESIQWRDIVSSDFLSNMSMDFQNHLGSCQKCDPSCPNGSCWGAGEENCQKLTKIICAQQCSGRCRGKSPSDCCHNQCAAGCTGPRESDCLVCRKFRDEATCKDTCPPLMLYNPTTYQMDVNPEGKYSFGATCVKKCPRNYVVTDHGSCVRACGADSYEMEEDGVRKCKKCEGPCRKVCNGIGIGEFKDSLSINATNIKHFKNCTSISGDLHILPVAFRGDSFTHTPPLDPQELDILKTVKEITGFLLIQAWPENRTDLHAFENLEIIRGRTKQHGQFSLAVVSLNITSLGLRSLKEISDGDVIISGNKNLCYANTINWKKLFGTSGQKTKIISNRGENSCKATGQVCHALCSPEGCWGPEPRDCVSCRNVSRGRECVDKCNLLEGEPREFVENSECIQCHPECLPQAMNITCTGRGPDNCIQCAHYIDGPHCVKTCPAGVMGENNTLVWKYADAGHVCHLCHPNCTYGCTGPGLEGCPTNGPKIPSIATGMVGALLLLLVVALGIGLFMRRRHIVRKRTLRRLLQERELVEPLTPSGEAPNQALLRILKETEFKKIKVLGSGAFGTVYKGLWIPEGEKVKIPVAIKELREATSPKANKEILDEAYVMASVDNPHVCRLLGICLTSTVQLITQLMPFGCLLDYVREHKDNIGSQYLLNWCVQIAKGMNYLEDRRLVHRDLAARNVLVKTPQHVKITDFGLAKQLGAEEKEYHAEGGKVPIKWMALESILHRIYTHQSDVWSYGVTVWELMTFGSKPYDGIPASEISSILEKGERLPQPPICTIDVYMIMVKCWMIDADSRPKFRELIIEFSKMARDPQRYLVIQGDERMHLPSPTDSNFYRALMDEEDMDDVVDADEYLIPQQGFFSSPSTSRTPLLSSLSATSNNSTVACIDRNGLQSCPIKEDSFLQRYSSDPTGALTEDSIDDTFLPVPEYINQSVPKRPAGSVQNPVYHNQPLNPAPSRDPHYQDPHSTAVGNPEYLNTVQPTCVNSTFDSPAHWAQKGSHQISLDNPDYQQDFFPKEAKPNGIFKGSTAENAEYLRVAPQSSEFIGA
Histone deacetylase 1, sequence (Q13547 whole entry): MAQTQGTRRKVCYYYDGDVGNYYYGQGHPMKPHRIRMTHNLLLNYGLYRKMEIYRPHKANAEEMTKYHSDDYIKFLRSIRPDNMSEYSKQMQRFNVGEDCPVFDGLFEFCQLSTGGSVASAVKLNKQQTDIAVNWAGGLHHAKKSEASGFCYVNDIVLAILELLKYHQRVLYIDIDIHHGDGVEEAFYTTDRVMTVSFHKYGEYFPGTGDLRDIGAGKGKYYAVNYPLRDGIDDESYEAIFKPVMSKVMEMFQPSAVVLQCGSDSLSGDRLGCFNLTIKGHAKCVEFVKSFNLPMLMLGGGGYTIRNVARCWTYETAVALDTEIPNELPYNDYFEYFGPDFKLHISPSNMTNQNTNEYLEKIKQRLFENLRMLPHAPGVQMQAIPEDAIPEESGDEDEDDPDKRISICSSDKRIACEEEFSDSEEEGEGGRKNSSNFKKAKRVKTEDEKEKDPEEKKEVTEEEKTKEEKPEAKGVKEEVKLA
Cytochrome P450 2C9, sequence (P11712 whole entry): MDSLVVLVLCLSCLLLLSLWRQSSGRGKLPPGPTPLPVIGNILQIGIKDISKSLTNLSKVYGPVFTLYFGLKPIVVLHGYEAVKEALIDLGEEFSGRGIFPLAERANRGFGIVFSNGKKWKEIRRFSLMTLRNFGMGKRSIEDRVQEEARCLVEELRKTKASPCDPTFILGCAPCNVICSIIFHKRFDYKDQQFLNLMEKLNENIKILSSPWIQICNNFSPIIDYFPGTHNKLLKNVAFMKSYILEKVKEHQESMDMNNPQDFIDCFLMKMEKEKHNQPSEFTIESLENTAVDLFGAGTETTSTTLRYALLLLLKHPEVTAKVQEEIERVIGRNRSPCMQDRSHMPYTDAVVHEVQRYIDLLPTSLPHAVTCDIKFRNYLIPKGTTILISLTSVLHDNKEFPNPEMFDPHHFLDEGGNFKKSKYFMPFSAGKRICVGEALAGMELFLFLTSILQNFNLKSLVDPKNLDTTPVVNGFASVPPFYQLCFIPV

A word on the DC50: it is the midpoint of the concentration-degradation curve. In general, Cmax refers to the peak of the concentration-time curve. A word on the half-life: it is the time in which the quantity being followed falls by half. As for `CCCn1c(=O)c(-c2ccc(C(=O)NCc3cccnc3)cc2)nc2ccc(NC(=O)CCCCCCCCCCC(=O)N[C@H](C(=O)N3C[C@H](O)C[C@H]3C(=O)N[C@@H](C)c3ccc(-c4scnc4C)cc3)C(C)(C)C)cc21`, in series [1], the DC50 came out at 8.4 nM. In addition, the Cmax in series [2] amounted to 166 nM. This molecule showed a half-life in series [3] of 9.89 h. Also, the inhibition in vivo at 30 mg/kg in series [4] came to 73%.
Usually IC50 stands for the concentration that inhibits the measured activity by half. In [5], `CC(=O)NCc1ncc2cc(COc3ccc(C(=O)NCc4cccnc4)cc3)n(CCC3CCCCC3)c2n1` showed a half-maximal inhibitory concentration (IC50) of 4.3 nM.
In the case of `C#Cc1cccc(Nc2ncnc3cc(OC)c(OCCCCCCCN/C(=N\C#N)Nc4ccncc4)cc23)c1`, the IC50 in [6] came to 0.48 nM; in [7] it was 0.49 nM.
Usually bioavailability stands for the share of a dose that reaches the circulation, judged against a reference dose that is usually intravenous. What is called CL/F is the apparent clearance, not corrected for the fraction that reaches the circulation. Take `O=C(NCc1ccc(S(=O)(=O)c2cc(F)cc(F)c2)cc1)c1ccc2nccn2c1`: the bioavailability came out at 29.7% in series [8], 33.9% in series [11], 65.2% in series [13] and 29.4% in series [14]. Also, the CL/F came out at 4.62 mL/min/kg in series [9], 19.3 mL/min/kg in series [10], 9.14 mL/min/kg in series [12] and 36.4 mL/min/kg in [16]. Besides, the inhibition in vivo at 15 mg/kg in series [15] amounted to 57%.
Turning to `Nc1ccccc1NC(=O)c1ccc(Cn2cc(-c3ccc(C(=O)NCc4cccnc4)cc3)nn2)cc1`, in series [17], the IC50 worked out at 55000 nM.
On to `O=C(NCCCCCCCn1cc(-c2cccnc2)nn1)c1cccc(-n2cc(CN3CCC(O)CC3)nn2)c1`, for which the figures for the IC50 in [18] and in series [19] were 13.6 nM and > 10000 nM, respectively.
Molecule `Cc1c(CNc2ccc(CCNC(=O)/C=C/c3cccnc3)cc2)oc2c1C(=O)C(=O)c1c-2ccc2c1CCCC2(C)C` showed a bioavailability in series [20] of 5.8%. The inhibition in vivo at 20 mg/kg in series [21] amounted to 52.1%. In addition, the inhibition in vivo at 10 mg/kg in series [22] turned out to be 44.2%.
Broadly, the clearance is the volume of plasma or blood freed of the substance per unit of time. `O=C(NC[C@@H]1CCOC1)c1ccc(NC(=O)N2Cc3ccccc3C2)cc1`: the clearance in [23] was 4.33 mL/min/kg. This molecule had a half-life in [24] of 3 h. In series [25], the inhibition in vivo at 15 mg/kg came to 78%.
For the molecule `CN1CCN(Cc2cn(-c3cccc(C(=O)NCCCCCCCn4cc(-c5cccnc5)nn4)c3)nn2)CC1`, the IC50 was 41.8 nM in [18] and > 10000 nM in series [19].
The term AUC denotes concentration integrated over time. For the molecule `CC(C)(O)CS(=O)(=O)Nc1ccc2c(c1)CCN(C(=O)COc1cccnc1)C2`, the concentration in series [26] peaked (Cmax) at 57 nM. In [18], this molecule displayed an IC50 of 3.2 nM. Moreover, the AUC in [27] amounted to 0.195 µM·h. For the same molecule, in series [28], the clearance was determined as 159 mL/min/kg. Moreover, in [29], the bioavailability was 39%.
`COC[C@H]1N[C@@H](c2ccc(NC(=O)c3ccc(CNS(=O)(=O)c4ccc(C(C)(C)C)cc4)cc3)cc2)[C@H](OC)[C@@H]1OC`: the IC50 in [30] was 32000 nM.
On to `CC(C)(O)CC(=O)N1CCC(c2ccc(NC(=O)N3Cc4ccccc4C3)cc2)CC1`, for which the IC50 in series [31] and in series [32] was > 20000 nM in each case. Also, the half-life in series [24] is 4.8 h. The same molecule yielded a bioavailability in [33] of 100%. Further, the inhibition in vivo at 15 mg/kg in [25] came out at 90%.
The molecule `O=C(/C=C/c1cccnc1)NCCCCC1CCN(C(=O)c2ccc(N3CCN(CCCCCCC#Cc4cccc5c4CN(C4CCC(=O)NC4=O)C5=O)CC3)cc2)CC1` (configuration not stated) returned a Cmax in [34] of 135 ng/mL. In [35], this molecule registered a bioavailability of 23.2%.
As to `Cc1ccc(C(=O)N(CCCNC(=O)CCCCCCCCN2CCN(S(=O)(=O)c3ccc(NC(=S)NCc4cccnc4)cc3)CC2)[C@@H](c2nc3cc(Cl)ccc3c(=O)n2Cc2ccccc2)C(C)C)cc1`, the IC50 amounted to 490 nM in [18] and 46 nM in series [36].
